Legend:
Experiment in all cases: KINOMEscan competition binding
Conditions in all cases: compound 10.0 µM
[1] = tested on: ABL1 (human), P00519 [E255K]
CDK4 CCND1 (human) = CDK4 CCND1 (human) (UniProt P11802+P24385)
CDK4 CCND3 (human) = CDK4 CCND3 (human) (UniProt P11802+P30281)
CRK2 (P.falciparum) = CRK2 (P.falciparum) (UniProt P61075)
CSNK1A1 (human) = CSNK1A1 (human) (UniProt P48729)
DYRK1A (human) = DYRK1A (human) (UniProt Q13627)
DYRK2 (human) = DYRK2 (human) (UniProt Q92630)
EGFR (human) = EGFR (human) (UniProt P00533)
[2] = tested on: EGFR (human), P00533 [P753S; 747-752 del]
EIF2AK1 (human) = EIF2AK1 (human) (UniProt Q9BQI3)
ERBB3 (human) = ERBB3 (human) (UniProt P21860)
[3] = tested on: FLT3 (human), P36888 [K663Q]
GRK1 (human) = GRK1 (human) (UniProt Q15835)
GRK4 (human) = GRK4 (human) (UniProt P32298)
HIPK3 (human) = HIPK3 (human) (UniProt Q9H422)
HIPK4 (human) = HIPK4 (human) (UniProt Q8NE63)
ICK (human) = ICK (human) (UniProt Q9UPZ9)
IRAK1 (human) = IRAK1 (human) (UniProt P51617)
KIT (human) = KIT (human) (UniProt P10721)
LRRK2 (human) = LRRK2 (human) (UniProt Q5S007)
MAK (human) = MAK (human) (UniProt P20794)
MAP2K7 (human) = MAP2K7 (human) (UniProt O14733)
MAP3K13 (human) = MAP3K13 (human) (UniProt O43283)
MAP3K2 (human) = MAP3K2 (human) (UniProt Q9Y2U5)
MAST1 (human) = MAST1 (human) (UniProt Q9Y2H9)
MATK (human) = MATK (human) (UniProt P42679)
NEK11 (human) = NEK11 (human) (UniProt Q8NG66)
NEK3 (human) = NEK3 (human) (UniProt P51956)
NEK4 (human) = NEK4 (human) (UniProt P51957)
OXSR1 (human) = OXSR1 (human) (UniProt O95747)
PIK3C2G (human) = PIK3C2G (human) (UniProt O75747)
PIK3CG (human) = PIK3CG (human) (UniProt P48736)
PKN3 (M.tuberculosis) = PKN3 (M.tuberculosis) (UniProt Q6P5Z2)
ROCK1 (human) = ROCK1 (human) (UniProt Q13464)
STK32A (human) = STK32A (human) (UniProt Q8WU08)
STK38 (human) = STK38 (human) (UniProt Q15208)
STK39 (human) = STK39 (human) (UniProt Q9UEW8)
TAOK2 (human) = TAOK2 (human) (UniProt Q9UL54)
TRPM6 (human) = TRPM6 (human) (UniProt Q9BX84)
YSK4 (human) = YSK4 (human) (UniProt Q56UN5)

STK32A (human), sequence (Q8WU08 whole entry, looked up): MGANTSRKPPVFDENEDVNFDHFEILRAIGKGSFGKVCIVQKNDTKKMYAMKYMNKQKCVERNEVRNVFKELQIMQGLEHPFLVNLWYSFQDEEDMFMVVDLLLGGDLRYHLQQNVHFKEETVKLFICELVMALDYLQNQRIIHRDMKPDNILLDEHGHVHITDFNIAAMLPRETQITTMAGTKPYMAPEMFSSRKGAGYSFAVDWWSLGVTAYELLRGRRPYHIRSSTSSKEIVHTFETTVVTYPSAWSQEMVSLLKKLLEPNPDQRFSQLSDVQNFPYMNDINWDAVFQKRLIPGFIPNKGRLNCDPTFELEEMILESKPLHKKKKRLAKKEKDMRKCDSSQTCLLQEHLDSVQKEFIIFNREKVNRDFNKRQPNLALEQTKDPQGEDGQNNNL
PKN3 (M.tuberculosis), sequence (Q6P5Z2 whole entry, looked up): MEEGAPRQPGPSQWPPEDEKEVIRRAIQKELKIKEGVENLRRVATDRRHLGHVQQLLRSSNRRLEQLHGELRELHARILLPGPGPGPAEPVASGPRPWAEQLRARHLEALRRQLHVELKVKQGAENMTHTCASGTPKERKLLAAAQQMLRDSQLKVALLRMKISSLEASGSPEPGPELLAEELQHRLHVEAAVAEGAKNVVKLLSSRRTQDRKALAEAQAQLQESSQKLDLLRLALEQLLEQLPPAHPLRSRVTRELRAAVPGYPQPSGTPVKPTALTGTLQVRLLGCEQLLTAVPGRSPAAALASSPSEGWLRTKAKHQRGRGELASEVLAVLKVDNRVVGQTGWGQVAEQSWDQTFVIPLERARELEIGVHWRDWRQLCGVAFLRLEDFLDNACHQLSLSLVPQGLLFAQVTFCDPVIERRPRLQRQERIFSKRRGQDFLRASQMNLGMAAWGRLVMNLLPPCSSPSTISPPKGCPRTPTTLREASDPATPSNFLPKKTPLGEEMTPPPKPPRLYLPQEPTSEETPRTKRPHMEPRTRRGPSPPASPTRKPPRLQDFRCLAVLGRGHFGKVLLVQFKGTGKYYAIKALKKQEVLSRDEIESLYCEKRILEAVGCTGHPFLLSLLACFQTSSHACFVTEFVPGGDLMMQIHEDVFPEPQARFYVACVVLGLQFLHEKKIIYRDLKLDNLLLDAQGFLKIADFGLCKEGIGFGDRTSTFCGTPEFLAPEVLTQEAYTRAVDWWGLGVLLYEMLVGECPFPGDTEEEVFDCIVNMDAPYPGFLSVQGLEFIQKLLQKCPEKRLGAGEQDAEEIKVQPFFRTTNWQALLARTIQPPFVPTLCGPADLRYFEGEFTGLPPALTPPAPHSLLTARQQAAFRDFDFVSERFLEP
KIT (human), sequence (P10721 whole entry, looked up): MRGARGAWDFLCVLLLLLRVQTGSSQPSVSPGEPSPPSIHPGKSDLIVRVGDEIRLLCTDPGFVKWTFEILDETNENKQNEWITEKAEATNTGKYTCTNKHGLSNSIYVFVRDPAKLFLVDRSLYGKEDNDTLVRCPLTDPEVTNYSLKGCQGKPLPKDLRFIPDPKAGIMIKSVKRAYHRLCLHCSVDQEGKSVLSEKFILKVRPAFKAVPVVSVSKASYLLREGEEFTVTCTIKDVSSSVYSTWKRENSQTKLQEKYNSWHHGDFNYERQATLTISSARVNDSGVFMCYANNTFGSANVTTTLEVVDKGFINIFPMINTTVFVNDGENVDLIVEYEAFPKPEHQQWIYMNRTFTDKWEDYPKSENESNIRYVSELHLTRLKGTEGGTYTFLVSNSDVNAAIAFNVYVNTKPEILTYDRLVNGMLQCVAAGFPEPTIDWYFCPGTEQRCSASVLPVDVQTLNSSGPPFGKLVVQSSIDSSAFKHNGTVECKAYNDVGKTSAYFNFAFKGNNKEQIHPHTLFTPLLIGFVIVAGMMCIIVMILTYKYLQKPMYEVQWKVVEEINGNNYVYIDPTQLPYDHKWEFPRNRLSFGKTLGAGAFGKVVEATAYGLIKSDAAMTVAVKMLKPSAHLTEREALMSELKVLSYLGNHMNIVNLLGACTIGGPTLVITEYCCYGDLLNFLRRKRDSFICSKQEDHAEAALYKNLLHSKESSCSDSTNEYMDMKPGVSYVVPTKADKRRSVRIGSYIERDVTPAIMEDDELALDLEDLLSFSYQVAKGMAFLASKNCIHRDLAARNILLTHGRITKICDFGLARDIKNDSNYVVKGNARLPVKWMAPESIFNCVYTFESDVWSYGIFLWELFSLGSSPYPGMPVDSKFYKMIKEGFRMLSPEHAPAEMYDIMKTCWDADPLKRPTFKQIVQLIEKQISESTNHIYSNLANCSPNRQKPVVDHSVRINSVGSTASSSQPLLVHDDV
MATK (human), sequence (P42679 whole entry, looked up): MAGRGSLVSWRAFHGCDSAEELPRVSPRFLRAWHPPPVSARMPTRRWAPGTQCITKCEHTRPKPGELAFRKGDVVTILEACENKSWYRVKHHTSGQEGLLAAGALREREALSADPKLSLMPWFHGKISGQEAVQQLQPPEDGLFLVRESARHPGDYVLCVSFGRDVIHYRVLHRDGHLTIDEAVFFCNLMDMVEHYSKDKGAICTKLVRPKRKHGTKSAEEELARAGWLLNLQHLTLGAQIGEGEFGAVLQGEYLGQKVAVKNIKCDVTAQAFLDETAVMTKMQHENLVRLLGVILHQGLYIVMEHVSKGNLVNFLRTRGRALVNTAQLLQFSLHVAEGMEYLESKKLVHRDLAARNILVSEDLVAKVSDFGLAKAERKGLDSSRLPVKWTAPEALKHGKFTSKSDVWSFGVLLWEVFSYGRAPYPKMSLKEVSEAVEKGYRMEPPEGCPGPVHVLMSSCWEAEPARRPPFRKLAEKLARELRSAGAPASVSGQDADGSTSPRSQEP
GRK4 (human), sequence (P32298 whole entry, looked up): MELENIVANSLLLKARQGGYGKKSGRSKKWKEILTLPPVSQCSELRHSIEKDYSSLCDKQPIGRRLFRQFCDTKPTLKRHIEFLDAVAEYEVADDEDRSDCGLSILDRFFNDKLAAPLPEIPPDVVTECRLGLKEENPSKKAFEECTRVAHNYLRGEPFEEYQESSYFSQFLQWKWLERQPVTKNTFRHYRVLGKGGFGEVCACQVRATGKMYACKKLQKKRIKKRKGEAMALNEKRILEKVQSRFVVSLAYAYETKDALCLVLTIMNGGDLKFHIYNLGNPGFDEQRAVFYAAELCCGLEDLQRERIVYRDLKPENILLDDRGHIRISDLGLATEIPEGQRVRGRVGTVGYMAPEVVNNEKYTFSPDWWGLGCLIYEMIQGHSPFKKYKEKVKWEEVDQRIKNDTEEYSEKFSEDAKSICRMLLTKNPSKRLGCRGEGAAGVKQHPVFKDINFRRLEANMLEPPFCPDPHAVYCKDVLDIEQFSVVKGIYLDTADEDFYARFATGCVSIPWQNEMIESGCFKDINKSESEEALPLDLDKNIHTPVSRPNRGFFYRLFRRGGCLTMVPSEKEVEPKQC
ROCK1 (human), sequence (Q13464 whole entry, looked up): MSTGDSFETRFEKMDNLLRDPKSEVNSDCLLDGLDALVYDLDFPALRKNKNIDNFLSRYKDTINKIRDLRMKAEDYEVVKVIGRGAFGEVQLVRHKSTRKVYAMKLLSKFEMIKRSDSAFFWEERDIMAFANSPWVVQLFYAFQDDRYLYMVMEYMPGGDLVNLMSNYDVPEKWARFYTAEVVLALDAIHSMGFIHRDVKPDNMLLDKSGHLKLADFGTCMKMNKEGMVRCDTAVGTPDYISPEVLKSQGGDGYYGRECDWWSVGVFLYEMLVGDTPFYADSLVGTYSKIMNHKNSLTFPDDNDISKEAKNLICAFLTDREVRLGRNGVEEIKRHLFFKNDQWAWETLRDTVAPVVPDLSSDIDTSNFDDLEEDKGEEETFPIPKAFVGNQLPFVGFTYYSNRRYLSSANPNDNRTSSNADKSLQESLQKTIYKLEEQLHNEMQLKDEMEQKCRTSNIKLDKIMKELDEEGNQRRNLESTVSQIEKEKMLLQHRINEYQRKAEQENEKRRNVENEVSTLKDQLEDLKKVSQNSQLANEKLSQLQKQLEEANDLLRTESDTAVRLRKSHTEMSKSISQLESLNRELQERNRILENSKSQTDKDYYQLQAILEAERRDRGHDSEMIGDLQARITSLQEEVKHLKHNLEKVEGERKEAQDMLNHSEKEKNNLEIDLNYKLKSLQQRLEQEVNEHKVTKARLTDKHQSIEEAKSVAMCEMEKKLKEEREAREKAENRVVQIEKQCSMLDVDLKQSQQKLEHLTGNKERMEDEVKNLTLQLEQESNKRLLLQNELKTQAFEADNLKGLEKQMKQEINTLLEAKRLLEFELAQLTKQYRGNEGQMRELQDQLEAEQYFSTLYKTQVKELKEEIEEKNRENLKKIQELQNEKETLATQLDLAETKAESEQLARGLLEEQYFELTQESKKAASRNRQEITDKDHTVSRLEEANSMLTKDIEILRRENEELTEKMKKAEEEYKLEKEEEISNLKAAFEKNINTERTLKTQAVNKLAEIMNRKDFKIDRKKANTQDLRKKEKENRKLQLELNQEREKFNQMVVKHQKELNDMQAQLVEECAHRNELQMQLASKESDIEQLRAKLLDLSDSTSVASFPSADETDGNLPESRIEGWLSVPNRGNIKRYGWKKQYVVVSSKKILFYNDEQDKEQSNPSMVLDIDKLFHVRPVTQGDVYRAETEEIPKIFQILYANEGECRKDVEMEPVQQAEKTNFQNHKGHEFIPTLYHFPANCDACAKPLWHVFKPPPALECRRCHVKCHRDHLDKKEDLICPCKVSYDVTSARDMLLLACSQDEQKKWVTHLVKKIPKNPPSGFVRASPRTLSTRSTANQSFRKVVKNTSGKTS
CSNK1A1 (human), sequence (P48729 whole entry, looked up): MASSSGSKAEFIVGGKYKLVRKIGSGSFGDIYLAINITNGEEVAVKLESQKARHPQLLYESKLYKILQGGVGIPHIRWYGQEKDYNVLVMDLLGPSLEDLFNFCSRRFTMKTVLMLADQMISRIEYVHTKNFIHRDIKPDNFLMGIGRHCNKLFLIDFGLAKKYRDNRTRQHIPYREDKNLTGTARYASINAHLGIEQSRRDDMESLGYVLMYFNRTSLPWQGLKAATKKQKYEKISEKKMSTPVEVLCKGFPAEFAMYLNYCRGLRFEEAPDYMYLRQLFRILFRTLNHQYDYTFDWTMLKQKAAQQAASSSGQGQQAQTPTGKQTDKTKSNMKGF

| SMILES | kinase still bound, per cent of control [1] | kinase still bound, per cent of control (CDK4 CCND1 (human)) | kinase still bound, per cent of control (CDK4 CCND3 (human)) | kinase still bound, per cent of control (CRK2 (P.falciparum)) | kinase still bound, per cent of control (CSNK1A1 (human)) | kinase still bound, per cent of control (DYRK1A (human)) | kinase still bound, per cent of control (DYRK2 (human)) | kinase still bound, per cent of control (EGFR (human)) | kinase still bound, per cent of control [2] | kinase still bound, per cent of control (EIF2AK1 (human)) | kinase still bound, per cent of control (ERBB3 (human)) | kinase still bound, per cent of control [3] | kinase still bound, per cent of control (GRK1 (human)) | kinase still bound, per cent of control (GRK4 (human)) | kinase still bound, per cent of control (HIPK3 (human)) | kinase still bound, per cent of control (HIPK4 (human)) | kinase still bound, per cent of control (ICK (human)) | kinase still bound, per cent of control (IRAK1 (human)) | kinase still bound, per cent of control (KIT (human)) | kinase still bound, per cent of control (LRRK2 (human)) | other results |
| --- | --- | --- | --- | --- | --- | --- | --- | --- | --- | --- | --- | --- | --- | --- | --- | --- | --- | --- | --- | --- | --- |
| C[C@@H](Oc1cc(-n2cnc3ccc(CN4CCN(C)CC4)cc32)sc1C(N)=O)c1ccccc1C(F)(F)F | 55% | 91% | 70% | 100% | 91% | 100% | 54% | 87% | 97% | 94% | 100% | 14% | 50% | 16% | 37% | 36% | 85% | 23% | 47% | 60% | kinase still bound, per cent of control (MAK (human)): 100%; kinase still bound, per cent of control (MAP2K7 (human)): 80%; kinase still bound, per cent of control (MAP3K13 (human)): 87%; kinase still bound, per cent of control (MAP3K2 (human)): 100%; kinase still bound, per cent of control (MAST1 (human)): 3.1%; kinase still bound, per cent of control (MATK (human)): 52%; kinase still bound, per cent of control (NEK11 (human)): 100%; kinase still bound, per cent of control (NEK3 (human)): 100%; kinase still bound, per cent of control (NEK4 (human)): 69%; kinase still bound, per cent of control (OXSR1 (human)): 98%; kinase still bound, per cent of control (PIK3C2G (human)): 40%; kinase still bound, per cent of control (PIK3CG (human)): 6.4%; kinase still bound, per cent of control (PKN3 (M.tuberculosis)): 27%; kinase still bound, per cent of control (ROCK1 (human)): 7.9%; kinase still bound, per cent of control (STK32A (human)): 66%; kinase still bound, per cent of control (STK38 (human)): 71%; kinase still bound, per cent of control (STK39 (human)): 11%; kinase still bound, per cent of control (TAOK2 (human)): 94%; kinase still bound, per cent of control (TRPM6 (human)): 100%; kinase still bound, per cent of control (YSK4 (human)): 12% |
| C=CC(=O)Nc1cc(NC(=O)c2ccc(C)c(NC(=O)c3ccno3)c2)cc(C(F)(F)F)c1 | 86% | 100% | 95% | 98% | 100% | 99% | 78% | 79% | 79% | 100% | 100% | 100% | 86% | 100% | 100% | 100% | 75% | 100% | 4.7% | 89% | kinase still bound, per cent of control (MAK (human)): 84%; kinase still bound, per cent of control (MAP2K7 (human)): 100%; kinase still bound, per cent of control (MAP3K13 (human)): 98%; kinase still bound, per cent of control (MAP3K2 (human)): 100%; kinase still bound, per cent of control (MAST1 (human)): 100%; kinase still bound, per cent of control (MATK (human)): 100%; kinase still bound, per cent of control (NEK11 (human)): 100%; kinase still bound, per cent of control (NEK3 (human)): 88%; kinase still bound, per cent of control (NEK4 (human)): 84%; kinase still bound, per cent of control (OXSR1 (human)): 100%; kinase still bound, per cent of control (PIK3C2G (human)): 100%; kinase still bound, per cent of control (PIK3CG (human)): 76%; kinase still bound, per cent of control (PKN3 (M.tuberculosis)): 75%; kinase still bound, per cent of control (ROCK1 (human)): 100%; kinase still bound, per cent of control (STK32A (human)): 100%; kinase still bound, per cent of control (STK38 (human)): 90%; kinase still bound, per cent of control (STK39 (human)): 86%; kinase still bound, per cent of control (TAOK2 (human)): 87%; kinase still bound, per cent of control (TRPM6 (human)): 100%; kinase still bound, per cent of control (YSK4 (human)): 74% |
| O=C1Nc2ccc(I)cc2/C1=C/c1cc(Br)c(O)c(Br)c1 | 54% | 65% | 99% | 90% | 81% | 26% | 54% | 56% | 50% | 57% | 87% | 11% | 92% | 21% | 8% | 21% | 88% | 100% | 3.4% | 11% | kinase still bound, per cent of control (MAK (human)): 100%; kinase still bound, per cent of control (MAP2K7 (human)): 98%; kinase still bound, per cent of control (MAP3K13 (human)): 100%; kinase still bound, per cent of control (MAP3K2 (human)): 100%; kinase still bound, per cent of control (MAST1 (human)): 100%; kinase still bound, per cent of control (MATK (human)): 100%; kinase still bound, per cent of control (NEK11 (human)): 100%; kinase still bound, per cent of control (NEK3 (human)): 95%; kinase still bound, per cent of control (NEK4 (human)): 93%; kinase still bound, per cent of control (OXSR1 (human)): 100%; kinase still bound, per cent of control (PIK3C2G (human)): 44%; kinase still bound, per cent of control (PIK3CG (human)): 71%; kinase still bound, per cent of control (PKN3 (M.tuberculosis)): 64%; kinase still bound, per cent of control (ROCK1 (human)): 80%; kinase still bound, per cent of control (STK32A (human)): 91%; kinase still bound, per cent of control (STK38 (human)): 64%; kinase still bound, per cent of control (STK39 (human)): 100%; kinase still bound, per cent of control (TAOK2 (human)): 71%; kinase still bound, per cent of control (TRPM6 (human)): 100%; kinase still bound, per cent of control (YSK4 (human)): 0.4% |

Source: the kinase profiling compilation of Christmann-Franck et al. (2016)
